Measured values taken from patent publication US5679695A, “Aryl and heteroaryl compounds having anti-retrovirus activity” (The University of Connecticut, priority 1995, dated 1997).

How the values were obtained:
[1] = system: HIV-1; assay: XTT assay of protection from HIV-1 cytopathic effect, infected, CEM-IW; type: cell-based, Human Immunodeficiency Virus; conditions: Human immunodeficiency virus 1, CEM-IW, summary table; read-out: CEM-IW EC50
Protocol: (§1) Another assay for testing the efficacy of the compounds is the procedure* used in the National Cancer Institute's test for agents active against Human Immunodeficiency Virus (HIV). It is designed to detect agents acting at any stage of the virus reproductive cycle. The assay basically involves the killing of T4 lymphocytes by HIV. Small amounts of HIV are added to cells, and a complete cycle of virus reproduction is necessary to obtain the required cell killing. Agents that interact with virions, cells, or virus gene-products to interfere with viral activities will protect cells from cytolysis. The system is automated in several features to accommodate large numbers of candidate agents and is generally designed to detect anti-HIV activity. However, compounds that degenerate, or are rapidly metabolized in the culture conditions may not show activity in this screen. All tests are compared with at least one positive (e.g., AZT-treated) control done at the same time under identical conditions.
(§2) * Weislow. O. W., Kiser, R., Fine, D., Bader, J., Shoemaker, R. H., Boyd, M. R.: New soluble-formazan assay for HIV-1 cytopathic effects: application to high-flux screening of synthetic and natural products for AIDS-antiviral activity. J. Natl. Cancer Inst. 81:577-586, 1989.
(§3) 1. The Candidate agent is dissolved in dimethyl sulfoxide (unless otherwise instructed) then diluted 1:100 in cell culture medium before preparing serial half-log10 dilutions. T4 lymphocytes (CEM cell line) are added and after a brief interval HIV-1 added, resulting in a 1:200 final dilution of the compound. Uninfected cells with the compound serve as a toxicity control, and infected and uninfected cells without compound serve as basic controls.
(§4) 2. Cultures are incubated at 37° in a 5% carbon dioxide atmosphere for 6 days.
(§5) 3. The tetrazolium salt, XTT, is added to all wells, and cultures are incubated to allow formazan color development by viable cells.
(§6) 4. Individual wells are analyzed spectrophotometrically to quantitate formazan production, and in addition are viewed microscopically for detection of viable cells and confirmation of protective activity.
(§7) 5. Drug-treated virus-infected cells are compared with drug-treated noninfected cells and with other appropriate controls (untreated infected and untreated noninfected: cells, drug-containing wells without cells, etc.) on the same plate.
(§8) 6. Data are reviewed in comparison with other tests done at the same time and a determination about activity is made.

[2] = system: CEM-Z; assay: XTT toxicity control, uninfected culture, CEM-Z; type: cell-based
Protocol: as §1, §2, §3, §4, §5, §6, §7, §8

[3] = XTT toxicity control, uninfected culture, CEM-Z; type: cell-based; conditions: human, cem-z cells, read-out: Uninfected culture response
Protocol: as §1, §2, §3, §4, §5, §6, §7, §8

[4] = system: Rauscher Murine Leukemia Virus (MLV); assay: Rauscher MuLV UV-XC plaque assay; type: cell-based
Protocol: One such method is used to determine the effectiveness of representative compounds and compositions of the present invention in the Rauscher and LP-BMS Murine Leukemia Virus (MLV) In Vitro Assays.
SC-1 cells were grown as monolayers in 6-well tissue culture plates (Falcon). The a test compound was added to the cultures at the time of virus inoculation (approximately 24 hours after the cells were seeded) and was present for 3 days, at which time the cultures were irradiated with UV light. All compounds were solubilized in DMSO prior to dilution in grown medium. The highest concentration of DMSO present in the cultures was 0.05%. The test cultures (triplicate cultures per drug concentrate) each contained 2 ml of test compound diluted in growth medium (Eagle's minimum) essential medium (EMEM) supplemented with 5% heat-inactivated fetal bovine serum (FBS) and 0.5 ml of the virus suspension diluted to produce a countable number of plaques per well. The six virus control cultures contained 2 ml of medium and 0.5 ml of the virus suspension. NSC606170(ddC) was included as a positive control. drug. Drug cytotoxicity control cultures (containing test compound) but no virus and cell control culture (containing no test compound) or virus were included in the assay. On day 3 post-virus inoculation, the cultures were irradiated and XC cells were added. Three days after V-irradiation, the cultures were fixed with formalin and stained with 0.1% crystal violet. The plaques were counted with the aid of a dissection microscope.
Using the procedure, the following data is generated from representative compounds of the presnet invention.

[5] = Storage in a clear glass bottle; type: physicochemical; conditions: several weeks of storage in a clear glass bottle
[6] = Murine leukemia virus, SC-1, 1 × 10^-4 M, read-out: % Plaque Reduction
[7] = Murine leukemia virus, SC-1, 1 × 10^-5 M, read-out: % Plaque Reduction
[8] = Murine leukemia virus, SC-1, 1 × 10^-6 M, read-out: % Plaque Reduction
[9] = Murine leukemia virus, SC-1, 1 × 10^-7 M, read-out: % Plaque Reduction
[10] = Murine leukemia virus, SC-1, 1 × 10^-8 M, read-out: % Plaque Reduction

O=[N+]([O-])c1ccccc1S(=O)(=O)c1ccccc1 [Compound 1, 1-Nitro-2-(phenylsulfonyl)benzene]
EC50 [1]: 4.41 µM
Uninfected culture response ([2]; 1.78 × 10^-4 Molar, 178 µM): 72.1%
Uninfected culture response ([2]; 1.79 × 10^-5 Molar, 17.9 µM): 103.0%
Uninfected culture response ([2]; 1.79 × 10^-6 Molar, 1.79 µM): 99.7%
Uninfected culture response ([2]; 1.79 × 10^-7 Molar, 0.179 µM): 102.5%
Uninfected culture response ([2]; 5.65 × 10^-5 Molar, 56.5 µM): 101.8%
Uninfected culture response ([2]; 5.66 × 10^-6 Molar, 5.66 µM): 100.0%
Uninfected culture response ([2]; 5.67 × 10^-7 Molar, 0.567 µM): 99.8%
Uninfected culture response ([2]; 5.68 × 10^-8 Molar, 0.0568 µM): 104.3%
IC50 ([2]; uninfected culture (toxicity)): > 178 µM
viability at 17.9 µM ([3]; 1.79 × 10^-5 Molar): 101%
viability at 1.79 µM ([3]; 1.79 × 10^-6 Molar): 97.9%
viability at 0.179 µM ([3]; 1.79 × 10^-7 Molar): 101%
viability at 56.5 µM ([3]; 5.65 × 10^-5 Molar): 103%
viability at 5.66 µM ([3]; 5.66 × 10^-6 Molar): 98.7%
viability at 0.567 µM ([3]; 5.67 × 10^-7 Molar): 99.6%
viability at 0.0568 µM ([3]; 5.68 × 10^-8 Molar): 101%
Mean plaque count ([4]; 1 × 10^-4 M): 46
Plaque count, replicate #1 ([4]; 1 × 10^-4 M): 43
Plaque count, replicate #2 ([4]; 1 × 10^-4 M): 48
Plaque count, replicate #3 ([4]; 1 × 10^-4 M): 46
Mean plaque count ([4]; 1 × 10^-5 M): 53
Plaque count, replicate #1 ([4]; 1 × 10^-5 M): 58
Plaque count, replicate #2 ([4]; 1 × 10^-5 M): 42
Plaque count, replicate #3 ([4]; 1 × 10^-5 M): 60
Mean plaque count ([4]; 1 × 10^-6 M): 56
Plaque count, replicate #1 ([4]; 1 × 10^-6 M): 71
Plaque count, replicate #2 ([4]; 1 × 10^-6 M): 43
Plaque count, replicate #3 ([4]; 1 × 10^-6 M): 53
Mean plaque count ([4]; 1 × 10^-7 M): 64
Plaque count, replicate #1 ([4]; 1 × 10^-7 M): 53
Plaque count, replicate #2 ([4]; 1 × 10^-7 M): 69
Plaque count, replicate #3 ([4]; 1 × 10^-7 M): 71
Mean plaque count ([4]; 1 × 10^-8 M): 65
Plaque count, replicate #1 ([4]; 1 × 10^-8 M): 64
Plaque count, replicate #2 ([4]; 1 × 10^-8 M): 55
Plaque count, replicate #3 ([4]; 1 × 10^-8 M): 76
inhibition at 100 µM [4, 6]: 26%
inhibition at 10 µM [4, 7]: 14%
inhibition at 1 µM [4, 8]: 10%
inhibition at 0.1 µM [4, 9]: 0%
inhibition at 0.01 µM [4, 10]: 0%

Cc1ccc(S(=O)(=O)c2ccccc2[N+](=O)[O-])cc1 [Compound 2, 1-(4-Methylphenylsulfonyl)-2-nitrobenzene]
EC50 [1]: 14.5 µM
colour change on storage [5]: turned light green
Mean plaque count ([4]; 1 × 10^-3 M): 19
Plaque count, replicate #1 ([4]; 1 × 10^-3 M): 20
Plaque count, replicate #2 ([4]; 1 × 10^-3 M): 20
Plaque count, replicate #3 ([4]; 1 × 10^-3 M): 17
Mean plaque count ([4]; 1 × 10^-4 M): 8
Plaque count, replicate #1 ([4]; 1 × 10^-4 M): 9
Plaque count, replicate #2 ([4]; 1 × 10^-4 M): 8
Plaque count, replicate #3 ([4]; 1 × 10^-4 M): 8
Mean plaque count ([4]; 1 × 10^-5 M): 64
Plaque count, replicate #1 ([4]; 1 × 10^-5 M): 60
Plaque count, replicate #2 ([4]; 1 × 10^-5 M): 69
Plaque count, replicate #3 ([4]; 1 × 10^-5 M): 64
Mean plaque count ([4]; 1 × 10^-6 M): 61
Plaque count, replicate #1 ([4]; 1 × 10^-6 M): 72
Plaque count, replicate #2 ([4]; 1 × 10^-6 M): 53
Plaque count, replicate #3 ([4]; 1 × 10^-6 M): 5
Mean plaque count ([4]; 1 × 10^-7 M): 56
Plaque count, replicate #1 ([4]; 1 × 10^-7 M): 52
Plaque count, replicate #2 ([4]; 1 × 10^-7 M): 57
Plaque count, replicate #3 ([4]; 1 × 10^-7 M): 60
Mean plaque count ([4]; 1 × 10^-8 M): 60
Plaque count, replicate #1 ([4]; 1 × 10^-8 M): 62
Plaque count, replicate #2 ([4]; 1 × 10^-8 M): 56
Plaque count, replicate #3 ([4]; 1 × 10^-8 M): 63
inhibition at 1000 µM ([4]; Murine leukemia virus, SC-1, 1 × 10^-3 M, read-out: % Plaque Reduction): 69%
inhibition at 100 µM [4, 6]: 87%
inhibition at 10 µM [4, 7]: 0%
inhibition at 1 µM [4, 8]: 2%
inhibition at 0.1 µM [4, 9]: 9%
inhibition at 0.01 µM [4, 10]: 3%
